Measurements as given in US20250243180A1, “TARGETED PROTEIN DEGRADATION” (Monte Rosa Therapeutics AG, priority 2023, published 2025).
Where two headings read alike, the source gives them in different places.

Key:
NEK7 = NEK7 (Homo sapiens (Human), UniProt Q8TDX7+Q96SW2); assay: NEK7 NanoBiT degradation assay in Cal51 NEK7 NanoBiT cell line; format: cell-based; conditions: Cal51 NEK7 NanoBiT cells, 24 hours; for Dmax: CAL-51
Procedure: Cal51 NEK7 NanoBiT cell line was generated via CRISPR Knock-In of the HiBiT tag in NEK7 gene and stable infection with a lentivirus carrying LgBiT protein. The cell line was generated in house. For the experiment, cells were plated in 384-well white flat bottom plates (Corning, 3570BC) at 2500 cells per well using Multiflo (BioTek/Agilent) and in 25 μl volume in DMEM experimental medium: DMEM (DMEM, high glucose, HEPES, no phenol red (ThermoFisher Scientific, 21063029) supplemented with 10% FBS (Corning, 35-075-CV), 1% Penicillin/Streptomycin ((ThermoFisher Scientific, 15140-122), and 1% Endurazine (Nano-Glo Endurazine Live Cell Substrate (Promega, N2571)). Cells were incubated for 16 hours at 37° C., 5% CO2 before compound addition. For dose response determination, 2.5 nL of a compound at different concentrations (stock compound concentration range: 10 mM to 0.5 μM, final concentration range inside cell plate: 1 μM to 0.05 nM) were dispensed into the plate using an Echo® 650 liquid handling device (Backman Coulter/Labcyte). Cells were incubated at 37° C., 5% CO2 for 24 hours and then signal was read on a Pherastar FSX using “LUM plus” optic module with 4095 gain and measurement interval time 0.2 seconds.
Analysis was performed in Genedata Screener (Genedata, Basel, CH). Luminescence response (R) was calculated by the formula: response=100*(S−N)/(P−N) where S is the signal of the well, N and P the mean negative and positive control values respectively of the same plate. The luminescence response was then fitted in Genedata using a 4-parameter antagonist logistic fit (hill slope unconstrained, EC50>0, top/bottom unconstrained).

CRBN-DDB1 = CRBN-DDB1 (Homo sapiens (Human), UniProt Q96SW2); assay: Compound binding to CRBN by HTRF assay
Procedure: Compound activity was monitored in a Homogenous Time-Resolved Fluorescence (HTRF) assay using 1-[5-({2-[2-(2-{[2-(2,6-dioxopiperidin-3-yl)-1,3-dioxo-2,3-dihydro-1H-isoindol-4-yl]oxy}acetamido)ethoxy]ethyl}carbamoyl)pentyl]-3,3-dimethyl-2-[(1E,3E)-5-[(2E)-1,3,3-trimethyl-5-sulfo-2,3-dihydro-1H-indol-2-ylidene]penta-1,3-dien-1-yl]-3H-indol-1-ium-5-sulfonate as a fluorescent probe. Biochemical assays were conducted in Greiner white 384 well HiBase plates (Cat. No 784075-25) in 20 μL total volume. A one pot detection solution of CRBN-DDB1 (2.5 nM), Anti-His Terbium Cryptate Gold (1×, PerkinElmer Cat. #: 61HI2TLB), and Cy5-Thalidomide (100 nM, Tenova Cat.: T52461) was prepared in 20 mM HEPES, 20 mM NaCl, 0.2 mM TCEP, 0.2 mM EDTA, and 0.005% Tween20 was dispensed to each assay plate. Compounds were stored in dry, ambient temperatures at 10 mM. An 11-point, 1:3 dilution series was prepared from 10 mM stock concentrations in Echo-compatible LDV plates. 10 nL of each compound dilution series was dispensed into assays wells using an Echo 650 (Labcyte Inc. USA). 20 nL of 10 mM Lenalidomide was transferred into the active-control wells for the assay and 20 nL of DMSO was transferred into the neutral-control wells. The assay was then allowed to incubate for 30 min at ambient temperature after transferring compound. Plate measurements were taken on a Pherastar FSX (BMG Labtech, Germany) using the HTRF Red filter (Ex. 337 nm, em1: 620 nm, em2: 665 nm) (Flashes: 50, Integration time: 60-400 us, Z-height: 10 mm, Ratio-multiplier: 10,000). The HTRF signal was then subsequently normalized to the neutral and active controls. Analysis and EC50 values were derived using KNIME analytics (KNIME Zurich) transformation and fitting within Collaborative Drug Discovery (Collaborative Drug Discovery USA). Ki was derived from the geometric mean of the EC50 values using the Cheng-Prustoff transformation.

[1] = NEK7 degradation, read-out: NanoBiT Dmax
[2] = NEK7 degradation, read-out: NanoBiT DC50

Sequence of CRBN-DDB1 (Q96SW2 whole entry): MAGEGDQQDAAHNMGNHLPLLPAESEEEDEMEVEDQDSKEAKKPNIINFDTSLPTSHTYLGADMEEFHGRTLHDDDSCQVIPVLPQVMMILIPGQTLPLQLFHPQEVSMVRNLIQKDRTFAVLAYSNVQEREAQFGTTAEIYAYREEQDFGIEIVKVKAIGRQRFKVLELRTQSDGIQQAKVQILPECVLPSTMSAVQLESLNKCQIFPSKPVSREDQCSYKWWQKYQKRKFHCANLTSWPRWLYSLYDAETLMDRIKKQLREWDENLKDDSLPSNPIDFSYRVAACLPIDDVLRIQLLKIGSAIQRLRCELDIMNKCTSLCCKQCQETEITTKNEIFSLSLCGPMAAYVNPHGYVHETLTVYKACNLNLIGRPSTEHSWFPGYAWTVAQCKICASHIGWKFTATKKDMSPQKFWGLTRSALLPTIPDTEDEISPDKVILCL
Sequence of CRBN-DDB1 (Q16531 whole entry partner): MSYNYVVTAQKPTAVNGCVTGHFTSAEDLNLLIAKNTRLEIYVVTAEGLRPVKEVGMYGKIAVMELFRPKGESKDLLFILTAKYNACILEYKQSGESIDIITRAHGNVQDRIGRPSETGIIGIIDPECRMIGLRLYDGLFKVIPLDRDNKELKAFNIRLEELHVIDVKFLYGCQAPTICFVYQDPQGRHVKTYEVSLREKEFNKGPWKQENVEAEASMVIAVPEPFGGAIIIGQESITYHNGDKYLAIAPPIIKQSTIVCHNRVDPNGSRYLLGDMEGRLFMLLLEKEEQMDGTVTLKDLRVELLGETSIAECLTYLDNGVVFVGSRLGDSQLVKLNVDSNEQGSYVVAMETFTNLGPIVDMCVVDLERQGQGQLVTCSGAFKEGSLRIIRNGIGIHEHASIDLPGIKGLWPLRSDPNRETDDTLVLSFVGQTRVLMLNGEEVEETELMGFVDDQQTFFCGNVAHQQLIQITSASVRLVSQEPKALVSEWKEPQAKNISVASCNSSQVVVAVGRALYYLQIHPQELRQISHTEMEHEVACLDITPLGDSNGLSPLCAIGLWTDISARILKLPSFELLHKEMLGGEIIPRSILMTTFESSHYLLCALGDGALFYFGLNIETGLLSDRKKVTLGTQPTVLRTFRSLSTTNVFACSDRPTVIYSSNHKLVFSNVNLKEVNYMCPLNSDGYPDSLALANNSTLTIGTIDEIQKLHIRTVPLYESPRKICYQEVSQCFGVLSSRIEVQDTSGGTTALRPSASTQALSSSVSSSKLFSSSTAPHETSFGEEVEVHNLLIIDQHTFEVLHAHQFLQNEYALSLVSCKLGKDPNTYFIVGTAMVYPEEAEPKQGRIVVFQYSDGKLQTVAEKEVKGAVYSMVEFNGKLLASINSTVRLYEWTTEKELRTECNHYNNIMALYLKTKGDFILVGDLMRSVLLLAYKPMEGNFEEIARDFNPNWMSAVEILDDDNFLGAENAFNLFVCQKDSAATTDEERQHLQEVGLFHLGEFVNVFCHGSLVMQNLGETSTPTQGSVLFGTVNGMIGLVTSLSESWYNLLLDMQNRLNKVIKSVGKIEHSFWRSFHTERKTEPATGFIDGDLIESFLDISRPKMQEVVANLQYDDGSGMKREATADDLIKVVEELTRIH
Sequence of NEK7 (Q8TDX7 whole entry): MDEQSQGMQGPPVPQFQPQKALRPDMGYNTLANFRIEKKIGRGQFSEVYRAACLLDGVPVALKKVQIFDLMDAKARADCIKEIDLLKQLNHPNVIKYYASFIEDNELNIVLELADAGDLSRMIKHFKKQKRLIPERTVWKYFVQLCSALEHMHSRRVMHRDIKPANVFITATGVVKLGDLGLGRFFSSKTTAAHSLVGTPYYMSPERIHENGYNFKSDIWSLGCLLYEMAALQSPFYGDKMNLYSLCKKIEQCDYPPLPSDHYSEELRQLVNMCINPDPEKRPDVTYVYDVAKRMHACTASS
Sequence of NEK7 (Q96SW2 whole entry): as the sequence (Q96SW2 whole entry) above
Sequence of NEK7 (Q16531 2-1140 partner): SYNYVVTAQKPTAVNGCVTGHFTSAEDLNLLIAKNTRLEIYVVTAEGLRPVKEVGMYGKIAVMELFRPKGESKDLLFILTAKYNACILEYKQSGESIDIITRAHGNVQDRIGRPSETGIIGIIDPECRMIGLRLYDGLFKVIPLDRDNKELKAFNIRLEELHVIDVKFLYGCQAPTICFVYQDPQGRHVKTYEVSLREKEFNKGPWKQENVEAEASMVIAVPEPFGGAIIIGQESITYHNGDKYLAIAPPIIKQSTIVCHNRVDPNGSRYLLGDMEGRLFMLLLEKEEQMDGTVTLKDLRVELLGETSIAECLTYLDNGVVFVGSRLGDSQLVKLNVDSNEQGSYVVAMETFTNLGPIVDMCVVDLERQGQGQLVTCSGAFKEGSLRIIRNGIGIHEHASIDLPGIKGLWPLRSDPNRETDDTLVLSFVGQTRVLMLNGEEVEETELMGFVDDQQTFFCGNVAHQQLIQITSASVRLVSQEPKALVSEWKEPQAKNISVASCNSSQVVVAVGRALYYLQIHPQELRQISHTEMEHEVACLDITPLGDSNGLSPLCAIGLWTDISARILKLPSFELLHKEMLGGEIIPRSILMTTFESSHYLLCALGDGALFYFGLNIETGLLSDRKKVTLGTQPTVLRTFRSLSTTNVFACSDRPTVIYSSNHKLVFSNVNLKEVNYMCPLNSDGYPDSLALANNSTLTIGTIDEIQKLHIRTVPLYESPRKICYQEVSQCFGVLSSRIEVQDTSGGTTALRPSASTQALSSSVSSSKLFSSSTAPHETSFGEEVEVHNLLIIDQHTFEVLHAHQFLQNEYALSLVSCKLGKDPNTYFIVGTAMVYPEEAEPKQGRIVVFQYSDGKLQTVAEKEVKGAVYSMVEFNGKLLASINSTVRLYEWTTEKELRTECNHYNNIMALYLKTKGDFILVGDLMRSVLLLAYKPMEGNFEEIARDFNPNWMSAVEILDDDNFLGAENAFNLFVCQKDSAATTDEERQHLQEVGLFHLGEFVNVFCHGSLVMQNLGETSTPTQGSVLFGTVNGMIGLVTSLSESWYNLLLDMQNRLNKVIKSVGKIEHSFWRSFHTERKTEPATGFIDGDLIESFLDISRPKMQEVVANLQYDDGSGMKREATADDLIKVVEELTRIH

Compound	Dmax (NEK7; read-out: NEK7 NanoBiT Dmax) [%]	Dmax (NEK7; [1]) [%]	DC50 (NEK7; read-out: NEK7 NanoBiT DC50) [nM]	DC50 (NEK7; [2]) [nM]	EC50 (CRBN-DDB1) [nM]	EC50 (CRBN-DDB1; HTRF class, Cereblon binding) [nM]
CC1(C(=O)NCc2cc(Cl)c(C3CCC(=O)NC3=O)c(Cl)c2)COc2ccccc2C1 (stereo not drawn) [Compound 38, N-(3,5-dichloro-4-(2,6-dioxopiperidin-3-yl)benzyl)-3-methylchromane-3-carboxamide]	90	> 75	6	≤ 100	40	≤ 100
CC(C)(C(=O)NCc1cc(Cl)c(C2CCC(=O)NC2=O)c(Cl)c1)c1cc(C2CC2)ncn1 (stereo not drawn) [Compound 151]	60	50 to 75	88	≤ 100	480	100 to 1000
CC(C)(C(=O)NCc1cc(Cl)c(C2CCC(=O)NC2=O)c(Cl)c1)c1ncncc1F (stereo not drawn) [Compound 8]	93	> 75	6	≤ 100	210	100 to 1000
CC(C)(C(=O)NCc1ccc(C2CCC(=O)NC2=O)c(Cl)c1)c1cnc(F)nc1 (stereo not drawn) [Compound 3]	65	50 to 75	242	100 to 1000	500	100 to 1000
CC(C)(C(=O)NCc1cc(Cl)c(C2CCC(=O)NC2=O)c(Cl)c1)c1nnc(C(F)(F)F)o1 (stereo not drawn) [Compound 208]	56	50 to 75	345	100 to 1000	170	100 to 1000
CC(C)(C(=O)NCc1cc(Cl)c(C2CCC(=O)NC2=O)c(Cl)c1)c1ccc(F)cn1 (stereo not drawn) [Compound 22]	93	> 75	4	≤ 100	120	100 to 1000
Cc1nccc(C(C)(C)C(=O)NCc2cc(Cl)c(C3CCC(=O)NC3=O)c(Cl)c2)n1 (stereo not drawn) [Compound 150]	53	50 to 75	91	≤ 100	150	100 to 1000
COCc1ccnc(C(C)(C)C(=O)NCc2cc(Cl)c(C3CCC(=O)NC3=O)c(Cl)c2)n1 (stereo not drawn) [Compound 217]	56	50 to 75	327	100 to 1000	150	100 to 1000
Cc1cnc(C(C)(C)C(=O)NCc2cc(Cl)c([C@]3(F)CCC(=O)NC3=O)c(Cl)c2)nc1 (single isomer, unassigned) [Compound 243]	9	≤ 50	1000	> 1000	≥ 10000	> 1000
Cc1conc1C(C)(C)C(=O)NCc1cc(F)c(C2CCC(=O)NC2=O)c(Cl)c1 (stereo not drawn) [Compound 279]	54	50 to 75	672	100 to 1000	350	100 to 1000
COc1ccc(C(C)(C)C(=O)NCc2cc(F)c(C3CCC(=O)NC3=O)c(Cl)c2)nn1 (stereo not drawn) [Compound 262]	88	> 75	12	≤ 100	80	≤ 100
COCc1ccc(C(C)(C)C(=O)NCc2cc(Cl)c(C3CCC(=O)NC3=O)c(Cl)c2)nn1 (stereo not drawn) [Compound 228]	85	> 75	18	≤ 100	150	100 to 1000
CCOc1cnc(C(C)(C)C(=O)NCc2cc(F)c(C3CCC(=O)NC3=O)c(Cl)c2)cn1 (stereo not drawn) [Compound 252]	93	> 75	3	≤ 100	50	≤ 100
CC(C)(O)c1cnc(C(C)(C)C(=O)NCc2cc(Cl)c(C3CCC(=O)NC3=O)c(Cl)c2)nc1 (stereo not drawn) [Compound 147]	52	50 to 75	776	100 to 1000	550	100 to 1000
CC(C)(C(=O)NCc1cc(Cl)c(C2CCC(=O)NC2=O)c(Cl)c1)c1cc(F)[nH]c(=O)c1 (stereo not drawn) [Compound 59]	87	> 75	28	≤ 100	140	100 to 1000
Cc1ccc(C(C)(C)C(=O)NCc2cc(Cl)c(C3CCC(=O)NC3=O)c(Cl)c2)cn1 (stereo not drawn) [Compound 205]	97	> 75	1	≤ 100	110	100 to 1000
CC(C)(C(=O)NCc1cc(Cl)c(C2CCC(=O)NC2=O)c(Cl)c1)c1ccc(C(N)=O)cc1 (stereo not drawn) [Compound 83]	94	> 75	7	≤ 100	140	100 to 1000
CC(C)(C(=O)NCc1cc(Cl)c([C@H]2CCC(=O)NC2=O)c(Cl)c1)c1ncccn1 (single isomer, unassigned) [Compound 180]	81	> 75	16	≤ 100	120	100 to 1000
CC(C)(C(=O)NCc1cc(Cl)c(C2CCC(=O)NC2=O)c(Cl)c1)c1ccncn1 (stereo not drawn) [Compound 19, N-(3,5-dichloro-4-(2,6-dioxopiperidin-3-yl)benzyl)-2-methyl-2-(pyrimidin-4-yl)propanamide]	84	> 75	23	≤ 100	140	100 to 1000
CC(C)(C(=O)NCc1ccc(C2CCC(=O)NC2=O)c(Cl)c1)c1ccccc1F (stereo not drawn) [Compound 24]	74	50 to 75	76	≤ 100	320	100 to 1000
